The results in this text go back to patent US20240190862A1 (AMGEN INC., priority 2019, published 2024).

The test system of series [1] is Phosphorylation of ERK1/2 in MIA PaCa-2 (G12C) cells. In words: Phospho-ERK1/2 MSD Assay. The class given is cell-based. The settings on record: Homo sapiens; 2 h compound treatment, MIA PaCa-2 cells; read-out: basal p-ERK 2 h MIA PaCa-2 (G12C) IC50 IP. On the procedure:
Phospho-ERK1/2 MSD Assay: MIA PaCa-2 (ATCC® CRL-1420™) cells were cultured in RPMI 1640 Medium (ThermoFisher Scientific 11875093) containing 1% fetal bovine serum (ThermoFisher Scientific 16000044) and 1× penicillin-streptomycin-glutamine (ThermoFisher Scientific 10378016). Sixteen hours prior to compound treatment, MIA PaCa-2 cells were seeded in 96-well cell culture plates at a density of 25,000 cells/well and incubated at 37° C., 5% C02. A compound dose-response titration was diluted in growth media, added to appropriate wells of a cell culture plate, and then incubated at 37° C., 5% C02 for 2 or 4 hours (see Table 15). Following compound treatment, cells were washed with ice-cold Dulbecco's phosphate-buffered saline, no Ca^2+or Mg^2+(ThermoFisher Scientific 14190144), and then lysed in RIPA buffer (50 mM Tris-HCl pH 7.5, 1% Igepal, 0.5% sodium deoxycholate, 150 mM NaCl, and 0.5% sodium dodecyl sulfate) containing protease inhibitors (Roche 4693132001) and phosphatase inhibitors (Roche 4906837001). Phosphorylation of ERK1/2 in compound-treated lysates was assayed using Phospho-ERK1/2 Whole Cell Lysate kits (Meso Scale Discovery K151DWD) according to the manufacturer's protocol. Assay plates were read on a Meso Scale Discovery Sector Imager 6000, and data were analyzed using a 4-parameter logistic model to calculate IC50 values.

Series [2] deals with GDP-bound KRAS protein (aa 1-169) G12D/C118A (Homo sapiens (Human), UniProt P01116, C118A/G12D). In words: Coupled Nucleotide Exchange Assay (KRAS G12D). To be noted: 20 h compound pre-incubation; read-out: GDP KRAS G12D 20 h Coupled Exchange IC50 IP. Type of series: biochemical.
For series [3], the target named is GDP-bound KRAS protein (aa 1-169) G12C/C118A (Homo sapiens (Human), UniProt P01116, C118A/G12C). In words: Coupled Nucleotide Exchange Assay (KRAS G12C). Type of series: biochemical.
Series [4] has as its target GDP-KRAS G12D (Homo sapiens, UniProt P01116, C118A/G12D). Put plainly: GDP-KRAS G12D RF-MS Assay. Type of series: binding. To be noted: 100 μM inhibitor, 20 h incubation, 2 uM KRAS G12D. On the procedure: GDP-KRAS G12D RF-MS Assay: MS assays were performed in the following buffer: 25 mM HEPES pH 7.4, 20 mM MgCl2, 10 mM NaCl, 3% DMSO, 0.0005% CHAPS with 100 μM GDP made fresh and added to the assay buffer. The final concentration of KRAS G12D was 2 uM. Assay incubation times were 20 h and the inhibitor concentration was 100 μM. Greiner polypropylene clear V-bottom plates were used for the mass spectrometry assays. Typically, the reaction was initiated by addition of KRAS G12D to a well containing inhibitor followed by Rapidfire MS analysis. Relative % Bound values at the various incubation times were used to estimate a kobs value at 100 uM inhibitor.
RapidFire Sample Liquid handling System: The RapidFire liquid handling unit used was the RF 360 model. Solvents were delivered by Agilent 1260 Infinity pumps. The instrument control software was the Agilent RapidFire High Throughput MS-system software (v4.0.12333.14274). A single C4 Type A (Agilent technologies, G9203) SPE-cartridge was used for these experiments. A volume of 10 μL (sample loop determined) was removed from each well of a 384-well plate by using an aspiration time of 300 ms. The sample load/wash time was 6000 ms at a flow rate of 1.25 mL/min (H2O, 0.1% v/v formic acid, 0.05% v/v trifluoroacetic acid); elution time was 7000 ms (acetonitrile, 0.1% v/v formic acid, 0.05% v/v trifluoroacetic acid); re-equilibration time was 700 ms at a flow rate of 1.25 mL/min (H2O, 0.1% v/v formic acid, 0.05% v/v trifluoroacetic acid).
Mass Spectrometry: Mass spectrometric data was acquired on an Agilent 6530 quadrupole time-of-flight (ToF) MS system, operated with a dual Agilent Jet Spray (AJS) ion source, in positive ionization mode. The instrument parameters were as follows: gas temperature 350° C.; drying gas 5 L/min; nebulizer 60 psi; sheath gas 350° C.; sheath gas flow 11 L/min; capillary 3.5 kV (0.037 μA); nozzle 1.75 kV; fragmentor 200 V; skimmer 75 V; octapole RF 800 V peak-to-peak. Data was acquired at the rate of 5 spectra/s. The mass scale was calibrated using the Agilent positive ion tune mix, over the m/z range 300-3200. The instrument control software was Agilent MassHunter Workstation Data Acquisition (vB.05.01).
Mass Spectrometry Data Processing and Informatics: All data processing was performed using a HP Z620, 64-bit, 12-processor, Windows 7 PC, using a combination of Agilent MassHunter Qualitative Analysis (B.05.00) Agilent RapidFire control software (v4.0.12333.14070) and the Agilent DA Reprocessor Offline Utilities B.05.00, Build 162. The SPE-MS data acquired from the RapidFire-MS system is typically a single SPE-MS data file composed of multiple injection events. For effective charge state extraction, SPE-peak integration and subsequent MS-spectral deconvolution, the single SPE-MS data file is split into single injection events. This is typically performed off-line and achieved through the RapidFire User Interface software, using the Agilent RapidFire control software (v4.0.12333.14070) using the Convert MS Data option. Once the individual injection-event MS-data files have been produced, they are all batch processed using the DA Reprocessor Offline Utilities (B.05.00, Build 162, Agilent). For batch processing a method file was created using Agilent MassHunter Qualitative Analysis B.05.00. The details of this method file are contained within the BioConfirm Workflow and are as follows: Integrate (MS), Integrator Selection: General, smooth option selected; detector point sampling 1; start threshold 5.0; stop threshold 0.0; filtering 5 point; peak location, top. Extract (MS): Peak Spectrum Extraction (MS) within m/z 800-1400. Deconvolute (MS) Maximum Entropy: mass range 19,000-21,000 Daltons; Mass step 1.0 Da; S/N threshold 20.0; Use limited m/z range 800-1400; adduct proton; isotope peak width automatic; minimum consecutive charge states 5. […]

Where [5] appears, read: 5 min compound pre-incubation, read-out: GDP KRAS G12C 5 min Coupled Exchange IC50 IP.
The mark [6] stands for this setting: 20 h compound pre-incubation, read-out: GDP KRAS G12C 20 h Coupled Exchange IC50 IP.

Read-outs that look alike come from different tables or passages of the source.

GDP-bound KRAS protein (aa 1-169) G12C/C118A, sequence (P01116 other isoform, or with tags, fused parts or gaps G12C/C118A): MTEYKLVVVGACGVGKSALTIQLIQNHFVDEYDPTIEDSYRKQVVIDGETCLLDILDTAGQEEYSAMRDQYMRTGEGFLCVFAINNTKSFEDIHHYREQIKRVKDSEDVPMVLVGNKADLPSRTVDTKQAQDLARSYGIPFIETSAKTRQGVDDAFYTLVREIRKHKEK
GDP-bound KRAS protein (aa 1-169) G12D/C118A, sequence (P01116 other isoform, or with tags, fused parts or gaps G12D/C118A): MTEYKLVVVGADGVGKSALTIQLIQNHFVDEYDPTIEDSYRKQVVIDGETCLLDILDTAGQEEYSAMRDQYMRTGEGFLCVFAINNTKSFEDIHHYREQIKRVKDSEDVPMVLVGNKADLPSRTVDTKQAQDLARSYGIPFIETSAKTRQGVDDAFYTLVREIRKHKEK

Turning to `Cc1ccnc(C(C)C)c1-n1c(=O)nc(N2CCN(C(=O)C=O)C[C@@H]2C)c2cc(Cl)c(-c3ccccc3F)nc21` [Example 4, (S)-2-(4-(6-chloro-7-(2-fluorophenyl)-1-(2-isopropyl-4-methylpyridin-3-yl)-2-oxo-1,2-dihydropyrido[2,3-d]pyrimidin-4-yl)-3-methylpiperazin-1-yl)-2-oxoacetaldehyde], the IC50 (usually the concentration that inhibits the measured activity by half) in series [1] stood at 711 nM.

Consider `COC(=O)/C=C/C(=O)N1CCN(c2nc(=O)n(-c3c(C)ccnc3C(C)C)c3nc(-c4ccccc4F)c(Cl)cc23)[C@@H](C)C1` [Example 5, Methyl (S,E)-4-(4-(6-chloro-7-(2-fluorophenyl)-1-(2-isopropyl-4-methylpyridin-3-yl)-2-oxo-1,2-dihydropyrido[2,3-d]pyrimidin-4-yl)-3-methylpiperazin-1-yl)-4-oxobut-2-enoate], for which the half-maximal inhibitory concentration (IC50) in series [2] was above 250000 nM; in series [3] (setting [5]) it was 95 nM; in series [3] (setting [6]), 26 nM; in series [1], 61 nM.

As for `CCOC(=O)[C@@H]1O[C@H]1C(=O)N1CCN(c2nc(=O)n(-c3c(C)ccnc3C(C)C)c3nc(-c4ccccc4F)c(Cl)cc23)[C@@H](C)C1` [Example 19, Ethyl (2R,3R)-3-((S)-4-(6-chloro-7-(2-fluorophenyl)-1-(2-isopropyl-4-methylpyridin-3-yl)-2-oxo-1,2-dihydropyrido[2,3-d]pyrimidin-4-yl)-3-methylpiperazine-1-carbonyl)oxirane-2-carboxylate], the “GDP-KRAS G12D RF-MS 100 μM 20 h Relative % Bound” value in series [4] is 3.4%. Further, the IC50 is above 250000 nM in series [2], 216 nM in series [3] (setting [5]), 5 nM in series [3] (setting [6]) and 96 nM in series [1].
